Measured values from publication PMC10952582, “Pregnenolone sulfate analogues differentially modulate GABAA receptor closed/desensitised states” (British Journal of Pharmacology, 2023).

Legend:
α1β3γ2L GABAAR [1] = molecular target: T1, α1β3γ2L GABAAR (Mus musculus, UniProt P22723+P62812+P63080); assay: Whole-cell voltage-clamp electrophysiology, wild-type α1β3γ2L GABAARs expressed in HEK cells; assay type: cell-based, murine
T1 construct: expressed in transfected cells; host or cells: HEK 293 cells (ATCC CRL-1573)
Description: (§1) HEK 293 cells (ATCC Cat# CRL‐1573, RRID:CVCL_0045) were maintained and transfected under standard conditions. In brief, cells were grown in monolayers in Dulbecco's modified Eagle's medium supplemented with 10% v/v fetal calf serum, 100 U·ml^−1 of penicillin‐G and 100 μg·ml^−1 of streptomycin and incubated at 37°C in humidified 95% air/5% CO2.
(§2) Before transfection, HEK cells were plated onto 22 mm of glass coverslips (VWR) coated in poly‐L‐lysine (Sigma). Cells were transfected with α1 (wild‐type [wt] or mutant [mut]), β3 (wt), γ2L (wt or mut) and enhanced green fluorescent protein (eGFP) in an equimolar ratio (1:1:1:1), using a calcium‐phosphate precipitation protocol. The transfection solution was prepared from 4 μg of cDNA per coverslip, 20 μl of 340 mM of CaCl2 and 24 μl of 2× HEPES‐buffered saline (HBS) (50 mM of HEPES, 280 mM of NaCl and 2.8 mM of Na2HPO4). Cells were selected for electrophysiology after 16–30 h based on their morphology and moderate GFP fluorescence.
(§3) Coverslips with transfected HEK cells were transferred into a recording chamber on a Nikon Eclipse FN1 microscope with a 470‐nm LED for GFP fluorescence. Cells were continuously perfused with Krebs solution containing (mM) 140 NaCl, 4.7 KCl, 1.2 MgCl2, 2.52 CaCl2, 11 glucose and 5 HEPES (pH 7.4). Patch pipettes (thin‐walled filamented borosilicate glass capillaries; TW150F‐4; WPI, USA; 3–4 MΩ) were filled with an intracellular solution containing (mM) 140 CsCl, 2 NaCl, 2 MgCl2, 5 EGTA, 10 HEPES, 0.5 CaCl2, 2 Na‐ATP and 0.5 Na‐GTP (pH 7.2). Drugs were applied to cells using a Y‐tube delivery system (Mortensen & Smart, [2007]), with the PS analogues pre‐applied 10–12 s before co‐application with GABA.
(§4) HEK cells were voltage clamped at −30 mV using an Axopatch 200B amplifier (Molecular Devices, USA), and whole‐cell currents were filtered at 5 kHz (−36 dB), digitised at 50 kHz via a Digidata 1322A (Molecular Devices) and recorded to a Dell Optiplex 990 using Clampex 10.2 (Molecular Devices). Series resistance was compensated at 60%–70%, and only data with <20% deviation in series resistance would be included in subsequent analyses.
(§5) Weighted time constants for the decay phase (τw) were calculated by fitting a biexponential curve to the current decay waveform and applying the following equation: τw=A1.τ1+A2.τ2/A1+A2, where τ1 and τ2 represent time constants for the two exponential components of the decay phase and A1 and A2 are their relative area contributions.
(§6) Current responses from voltage‐clamp experiments were measured, and decays fitted using ClampFit 10.2 (Molecular Devices) to determine the respective time constants. In Origin, data were plotted as concentration–response curves, and curves fitted using the following inhibition equation: I/Imax=1−B^n/IC50^n+B^n, where I is the current response, B is the concentration of the PS analogue, n is the slope coefficient and IC50 is the analogue concentration producing 50% inhibition of GABA current (inhibitory potency). Potency values are presented as pIC50 with SEM values. The mean was transformed into a molar concentration by pIC50 = −log IC50. Other data are represented as the mean ± SEM.

α1β3γ2L GABAAR [2] = molecular target: T2, α1β3γ2L GABAAR (Mus musculus, UniProt P62812); assay: as above; assay type: cell-based, murine; settings: for mean (weighted) decay time (τw) of GABA current: 1 nM PS analogue, 30 μM GABA
T2 construct: expressed in transfected cells; host or cells: HEK 293 cells (ATCC CRL-1573)
Description: as §1, §2, §3, §4, §5, §6

α1F295Aβ3γ2L GABAAR = molecular target: T3, α1F295Aβ3γ2L GABAAR (Mus musculus, UniProt P22723+P62812+P63080, F322A); assay: Whole-cell voltage-clamp electrophysiology, mutant α1F295Aβ3γ2L in HEK cells; assay type: cell-based, murine
T3 construct: expressed in transfected cells; host or cells: HEK 293 cells (ATCC CRL-1573)
Description: as §1, §2, §3, §4, §5, §6

α1F399Aβ3γ2L GABAAR = molecular target: T4, α1F399Aβ3γ2L GABAAR (Mus musculus, UniProt P22723+P62812+P63080, F426A); assay: Whole-cell voltage-clamp electrophysiology, mutant α1F399Aβ3γ2L in HEK cells; assay type: cell-based, murine
T4 construct: expressed in transfected cells; host or cells: HEK 293 cells (ATCC CRL-1573)
Description: as §1, §2, §3, §4, §5
Current responses from voltage‐clamp experiments were measured, and decays fitted using ClampFit 10.2 (Molecular Devices) to determine the respective time constants. […]

[3] = molecular target: T5, α1F295A, F399Aβ3γ2L GABAAR (Mus musculus, UniProt P22723+P62812+P63080, F322A/F426A); assay: Whole-cell voltage-clamp electrophysiology, mutant α1F295A,F399Aβ3γ2L in HEK cells; assay type: cell-based, murine
T5 construct: expressed in transfected cells; host or cells: HEK 293 cells (ATCC CRL-1573)
Description: as §1, §2, §3, §4, §5, §6

α1V296Lβ3γ2L GABAAR = molecular target: T6, α1V296Lβ3γ2L GABAAR (Mus musculus, UniProt P22723+P62812+P63080, V323L); assay: Whole-cell voltage-clamp electrophysiology, minimally desensitising mutant α1V296Lβ3γ2L in HEK cells; assay type: cell-based, murine
T6 construct: expressed in transfected cells; host or cells: HEK 293 cells (ATCC CRL-1573)
Description: as §1, §2, §3, §4, §5, §6

α1β3γ2LV262F GABAAR = molecular target: T7, α1β3γ2LV262F GABAAR (Mus musculus, UniProt P62812); assay: Whole-cell voltage-clamp electrophysiology, highly desensitising mutant α1β3γ2LV262F in HEK cells; assay type: cell-based, murine
T7 construct: expressed in transfected cells; host or cells: HEK 293 cells (ATCC CRL-1573)
Description: as §1, §2, §3, §4, §5, §6

α1β3γ2L GABAAR [4] = molecular target: T2, α1β3γ2L GABAAR; assay: Kinetic modelling and waveform fitting of GABA currents (ChanneLab); design: species or system murine; settings: waveform fit
Description: We used ChanneLab (Version 2.2; Synaptosoft) to build relatively simple kinetic models of the GABAAR. To explore the functional behaviour of PS analogues (compounds) 5 and 6, we incorporated concentration‐dependent PS analogue‐bound states into the model. Simulated currents were generated in ChanneLab and explored at different GABA and PS analogue concentrations. These were evaluated against GABA currents generated under experimental conditions, using the waveform fitting function in ChanneLab. Rate constants connecting receptor states were determined initially empirically with reference to previously published values and varied individually to optimise the fit to the data (seed values) prior to using waveform fitting and Runge–Kutta numerical integration (RK5) to eventually simulate the experimental GABA current profiles with 50 iterations. GABA‐activated membrane currents were fitted over their full timecourse of 20 s.
To investigate, simplified GABAAR models were constructed, incorporating some or all the following receptor states: an unbound closed state (R); GABA‐bound closed ‘composite’ state (RA) that incorporates one or more preactivation states that are not explicitly indicated or a closed (RA) and separate preactivated (RfA) state; a GABA‐bound activated state (RA*); and a desensitised state (RD) accessed via the receptor's activated state. These simple models enable the generation of simulated GABA‐dependent currents, with values for the rate constants determined initially empirically in broad accord with published parameters and manually adjusted to provide seed values before performing waveform fitting with unconstrained rate constants (Figure 8a).
RA* is the activated receptor open channel before moving to a desensitised state RD.

[5] = Decay inhibition (pIC50), potency for reducing GABA current weighted decay time constant, 30 μM GABA
[6] = Steady-state inhibition (IC50), GABA current after 20 s of 30 μM GABA (near steady state)
[7] = Steady-state inhibition (pIC50), GABA current after 20 s of 30 μM GABA (near steady state)
[8] = Peak inhibition (pIC50), peak current evoked by 30 μM GABA, analogue pre-applied 10–12 s and co-applied
[9] = Decay inhibition (IC50), GABA current weighted decay time constant
[10] = Decay inhibition (pIC50), GABA current weighted decay time constant
[11] = Steady-state inhibition (pIC50), 30 μM GABA, 20 s
[12] = Steady-state inhibition (pIC50), steady-state GABA current

T3 sequence (P62812 28-455 F322A): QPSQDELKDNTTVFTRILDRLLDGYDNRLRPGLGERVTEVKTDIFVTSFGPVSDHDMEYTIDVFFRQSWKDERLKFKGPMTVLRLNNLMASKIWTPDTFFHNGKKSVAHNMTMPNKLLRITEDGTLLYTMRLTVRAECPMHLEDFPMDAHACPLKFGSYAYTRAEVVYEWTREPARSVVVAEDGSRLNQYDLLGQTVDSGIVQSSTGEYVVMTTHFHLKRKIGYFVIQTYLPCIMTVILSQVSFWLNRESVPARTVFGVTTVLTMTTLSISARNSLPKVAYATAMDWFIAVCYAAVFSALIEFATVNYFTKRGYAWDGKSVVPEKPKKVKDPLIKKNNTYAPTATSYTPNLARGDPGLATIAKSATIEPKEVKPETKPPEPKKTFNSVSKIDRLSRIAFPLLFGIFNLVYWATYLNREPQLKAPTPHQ
T3 sequence (P63080 26-473 partner): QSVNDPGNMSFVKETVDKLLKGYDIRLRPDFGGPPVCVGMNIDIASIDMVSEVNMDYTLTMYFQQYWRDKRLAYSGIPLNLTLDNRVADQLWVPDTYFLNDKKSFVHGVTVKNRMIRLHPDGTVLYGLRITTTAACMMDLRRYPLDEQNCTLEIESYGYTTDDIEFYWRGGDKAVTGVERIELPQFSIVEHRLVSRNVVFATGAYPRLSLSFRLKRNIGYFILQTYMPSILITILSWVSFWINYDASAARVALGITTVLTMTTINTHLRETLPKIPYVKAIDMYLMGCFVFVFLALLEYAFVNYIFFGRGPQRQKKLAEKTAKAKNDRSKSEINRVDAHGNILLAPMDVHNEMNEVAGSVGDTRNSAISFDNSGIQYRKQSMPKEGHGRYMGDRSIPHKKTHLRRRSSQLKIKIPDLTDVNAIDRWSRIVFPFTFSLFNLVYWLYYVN
T3 sequence (P22723 39-474 partner): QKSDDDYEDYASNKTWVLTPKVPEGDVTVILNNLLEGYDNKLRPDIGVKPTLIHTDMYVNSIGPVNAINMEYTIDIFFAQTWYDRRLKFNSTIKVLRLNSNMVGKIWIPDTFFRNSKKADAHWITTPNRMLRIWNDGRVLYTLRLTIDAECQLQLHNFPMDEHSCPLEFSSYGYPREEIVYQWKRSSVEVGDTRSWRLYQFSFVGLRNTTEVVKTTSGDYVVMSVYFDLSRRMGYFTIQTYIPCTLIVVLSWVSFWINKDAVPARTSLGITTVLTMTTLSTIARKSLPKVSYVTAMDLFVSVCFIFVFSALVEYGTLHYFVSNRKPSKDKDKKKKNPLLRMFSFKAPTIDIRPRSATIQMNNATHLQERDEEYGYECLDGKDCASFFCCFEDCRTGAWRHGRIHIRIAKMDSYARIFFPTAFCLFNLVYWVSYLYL
T2 sequence (P62812 28-455): as the sequence (P62812 28-455 F322A) above, with A295F counted along it
T2 sequence (P63080 26-473 partner): as the sequence (P63080 26-473 partner) above
T2 sequence (P22723 39-474 partner): as the sequence (P22723 39-474 partner) above
T7 sequence (P62812 28-455): as the sequence (P62812 28-455 F322A) above, with A295F counted along it
T7 sequence (P63080 26-473 partner): as the sequence (P63080 26-473 partner) above
T7 sequence (P22723 39-474 V300F partner): as the sequence (P22723 39-474 partner) above, with V262F counted along it
T1 sequence (P62812 28-455): as the sequence (P62812 28-455 F322A) above, with A295F counted along it
T1 sequence (P63080 26-473 partner): as the sequence (P63080 26-473 partner) above
T1 sequence (P22723 39-474 partner): as the sequence (P22723 39-474 partner) above
T5 sequence (P62812 28-455 F322A/F426A): as the sequence (P62812 28-455 F322A) above, with F399A counted along it
T5 sequence (P63080 26-473 partner): as the sequence (P63080 26-473 partner) above
T5 sequence (P22723 39-474 partner): as the sequence (P22723 39-474 partner) above
T4 sequence (P62812 28-455 F426A): as the sequence (P62812 28-455 F322A) above, with A295F, F399A counted along it
T4 sequence (P63080 26-473 partner): as the sequence (P63080 26-473 partner) above
T4 sequence (P22723 39-474 partner): as the sequence (P22723 39-474 partner) above
T6 sequence (P62812 28-455 V323L): as the sequence (P62812 28-455 F322A) above, with A295F, V296L counted along it
T6 sequence (P63080 26-473 partner): as the sequence (P63080 26-473 partner) above
T6 sequence (P22723 39-474 partner): as the sequence (P22723 39-474 partner) above

| Compound | IC50 (α1β3γ2L GABAAR [1]; [5]) [µM] | IC50 (α1β3γ2L GABAAR [1]; [6]) [µM] | IC50 (α1β3γ2L GABAAR [1]; [7]) [µM] | mean (weighted) decay time (τw) of GABA current (α1β3γ2L GABAAR [2]) [s] | IC50 (α1β3γ2L GABAAR [1]; [8]) [µM] | IC50 (α1F295Aβ3γ2L GABAAR; [10]) [µM] | IC50 (α1F295Aβ3γ2L GABAAR; [11]) [µM] | IC50 (α1F399Aβ3γ2L GABAAR; [10]) [µM] | IC50 (α1F399Aβ3γ2L GABAAR; [11]) [µM] | IC50 [3, 10] [µM] | IC50 [3, 11] [µM] | IC50 (α1β3γ2LV262F GABAAR; [10]) [µM] | IC50 (α1β3γ2LV262F GABAAR; [12]) [µM] | further results |
| --- | --- | --- | --- | --- | --- | --- | --- | --- | --- | --- | --- | --- | --- | --- |
| C[C@]12CC[C@H](OS(=O)(=O)O)CC1=CCC1C2CC[C@@]2(C)C1CC[C@@H]2C(=O)Cn1ccnc1 (stereo partly shown) [compound 3] | 8.51 | ~1 | 0.891 | 3.8 ± 0.8 |  |  |  |  |  |  |  |  |  | IC50 (α1β3γ2L GABAAR [1]; Peak inhibition (IC50), peak current evoked by 30 μM GABA, analogue pre-applied 10–12 s and co-applied): 743 µM |
| C[C@]12CC[C@H](OS(=O)(=O)O)CC1=CCC1C2CC[C@@]2(C)C1CC[C@@H]2C(=O)Cn1cccn1 (stereo partly shown) [compound 6] | 1.66 | ~1 | 1.13 | 3.8 ± 0.2 | 220 ± 14.6 | 1.35 | 4.51 | 1.49 | 7.29 | 1.23 | 4.15 | 2.88 | 25.1 | fold difference in current decay potency, compound 6 vs compound 5 (α1β3γ2L GABAAR [2]; wild-type α1β3γ2L, decay IC50 of 5 vs 6): 70 fold; IC50 (α1F295Aβ3γ2L GABAAR; [9]): 1.4 µM; IC50 ([3]; Steady-state inhibition (IC50), 30 μM GABA, 20 s): 4.2 µM; IC50 (α1V296Lβ3γ2L GABAAR; [9]): > 100 µM; IC50 (α1V296Lβ3γ2L GABAAR; Steady-state inhibition (IC50), steady-state GABA current): > 100 µM; rate constant k4, Model (c) (α1β3γ2L GABAAR [4]; Model (c): binding to RA (RAP) and RD (RDP), 30 μM GABA): 234000 M⁻¹ s⁻¹; rate constant k2, Model (c) (α1β3γ2L GABAAR [4]; Model (c), 30 μM GABA): 129000 M⁻¹ s⁻¹; rate constant k‐4, Model (c) (α1β3γ2L GABAAR [4]; Model (c), 30 μM GABA): 184 s⁻¹; rate constant k2, Model (d) (α1β3γ2L GABAAR [4]; Model (d): binding to preactivated state RfA (RfAP) and RD): 173000 M⁻¹ s⁻¹; rate constant k4, Model (d) (α1β3γ2L GABAAR [4]; Model (d)): 184000 M⁻¹ s⁻¹; rate constant k‐4, Model (d) (α1β3γ2L GABAAR [4]; Model (d)): 307 s⁻¹ |
| C[C@]12CC[C@H](OS(=O)(=O)O)CC1=CCC1C2CC[C@@]2(C)C1CC[C@@H]2C(=O)CN1CCOCC1 (stereo partly shown) [compound 5] | 117 | ~1 | 0.843 | 3.7 ± 0.1 | ~2000 | 8.47 | 2.93 | 7.89 | 8.36 | 7.21 | 5.22 | 70.8 | 14.2 | IC50 (α1V296Lβ3γ2L GABAAR; [10]): 3.24 µM; IC50 (α1V296Lβ3γ2L GABAAR; [12]): 20.7 µM; rate constant k2, Model (b) (α1β3γ2L GABAAR [4]; Model (b): binding to RA forming RAP, then RAPd, 30 μM GABA): 62900 M⁻¹ s⁻¹; rate constant k3, Model (b) (α1β3γ2L GABAAR [4]; Model (b), 30 μM GABA): 921000 s⁻¹ |
